Assay [1] concerns the target T1, human MAO-A (Homo sapiens, UniProt P21397).
T1 construct: expressed in transfected cells; host or cells: EBNA cells (transient transfection); cell membranes used
Description: MAO-A enzymatic activity, spectrophotometric assay (tyramine, Amplex Red) on membranes of transfected EBNA cells. The class given is biochemical. As for the experimental part: (§1) After transfection, cells were homogenised by means of a Polytron homogenizer in 20 mM Tris HCl buffer, pH 8.0, containing 0.5 mM EGTA and 0.5 mM phenylmethanesulfonyl fluoride. Cell membranes were obtained by centrifugation at 45,000×g and, after two rinsing step with 20 mM Tris HCl buffer, pH 8.0, containing 0.5 mM EGTA, membranes were eventually re-suspended in the above buffer and aliquots stored at −80° C. until use.
(§2) Briefly, membrane aliquots were incubated in 0.1 M potassium phosphate buffer, pH 7.4, for 30 min at 37° C. with or without various concentrations of the compounds. After this period, the enzymatic reaction was started by the addition of the MAO substrate tyramine together with 1 U/ml horse-radish peroxidase (Roche Biochemicals) and 80 μM N-acetyl-3,7,-dihydroxyphenoxazine (Amplex Red, Molecular Probes). The samples were further incubated for 30 min at 37° C. in a final volume of 200 μl and absorbance was then determined at a wavelength of 570 nm using a SpectraMax plate reader (Molecular Devices). Background (non-specific) absorbance was determined in the presence of 10 μM clorgyline for MAO-A or 10 μM L-deprenyl for MAO-B.

Assay [2] addresses T2, human MAO-B (Homo sapiens, UniProt P27338).
T2 construct: expressed in transfected cells; host or cells: EBNA cells (transient transfection); cell membranes used
T2 sequence (P27338 1-520): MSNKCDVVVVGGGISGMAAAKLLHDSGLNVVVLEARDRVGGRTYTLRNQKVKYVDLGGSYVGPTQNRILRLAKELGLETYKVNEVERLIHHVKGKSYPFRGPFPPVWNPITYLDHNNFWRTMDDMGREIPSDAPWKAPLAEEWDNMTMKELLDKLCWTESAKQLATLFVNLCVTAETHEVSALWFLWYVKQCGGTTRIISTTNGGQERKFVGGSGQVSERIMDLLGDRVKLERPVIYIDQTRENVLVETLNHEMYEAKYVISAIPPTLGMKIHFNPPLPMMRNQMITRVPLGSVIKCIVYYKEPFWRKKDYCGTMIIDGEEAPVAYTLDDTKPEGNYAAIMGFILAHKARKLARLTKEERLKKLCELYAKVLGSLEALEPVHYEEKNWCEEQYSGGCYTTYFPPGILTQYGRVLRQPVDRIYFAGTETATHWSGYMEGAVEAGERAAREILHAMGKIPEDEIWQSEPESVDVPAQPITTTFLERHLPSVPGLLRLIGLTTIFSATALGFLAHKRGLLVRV
Description: MAO-B enzymatic activity, spectrophotometric assay (tyramine, Amplex Red) on membranes of transfected EBNA cells. The class given is biochemical. As for the experimental part:
as §1, with “The cDNA's encoding human MAO-A and MAO-B were transiently transfected into EBNA cells using the procedure described by E.-J. Schlaeger and K. Christensen (Transient Gene Expression in Mammalian Cells Grown in Serum-free Suspension Culture; Cytotechnology, 15: 1-13, 1998). After” for “After”
as §2, with “MAO-A and MAO-B enzymatic activity was assayed in 96-well-plates using a spectrophotometric assay adapted from the method described by M. Zhou and N. Panchuk-Voloshina (A One-Step Fluorometric Method for the Continuous Measurement of Monoamine Oxidase Activity, Analytical Biochemistry, 253: 169174, 1997). Briefly,” for “Briefly,”
IC50 values, that is, the concentration of a test compound according to the invention required to inhibit the MAO-B enzyme activity by 50%, were determined from inhibition curves obtained using nine inhibitor concentrations in duplicate, by fitting data to a four parameter logistic equation using a computer program.

Where [3] appears, read: membranes, 30 min preincubation at 37° C., pH 7.4, substrate tyramine, read-out: IC50 MAO-A.

Where two headings read alike, the source gives them in different places.

T1 sequence (P21397 whole entry): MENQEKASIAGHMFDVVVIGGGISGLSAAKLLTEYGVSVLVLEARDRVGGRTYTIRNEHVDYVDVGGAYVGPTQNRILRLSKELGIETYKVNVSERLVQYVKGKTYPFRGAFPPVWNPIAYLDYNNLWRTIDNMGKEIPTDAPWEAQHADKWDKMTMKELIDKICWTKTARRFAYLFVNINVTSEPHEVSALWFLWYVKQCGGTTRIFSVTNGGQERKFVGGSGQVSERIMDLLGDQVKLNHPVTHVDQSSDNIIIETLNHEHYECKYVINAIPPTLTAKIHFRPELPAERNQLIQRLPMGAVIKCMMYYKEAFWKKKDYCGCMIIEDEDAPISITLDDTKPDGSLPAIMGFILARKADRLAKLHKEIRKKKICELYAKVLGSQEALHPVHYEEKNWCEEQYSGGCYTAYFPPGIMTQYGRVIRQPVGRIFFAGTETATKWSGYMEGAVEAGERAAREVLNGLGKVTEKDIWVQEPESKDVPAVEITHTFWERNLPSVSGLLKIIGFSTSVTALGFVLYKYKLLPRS

By IC50 is commonly meant the point on the concentration scale where inhibition reaches its midpoint. Consider `O=C1NCCc2cc(OCc3cccc(F)c3)ccc21` [Example 1, 6-(3-Fluoro-benzyloxy)-3,4-dihydro-2H-isoquinolin-1-one], for which the IC50 in assay [1] (setting [3]) turned out to be 5240 nM; in assay [2], 104 nM.

On to `C[C@@H](C(N)=O)N1CCc2cc(OCc3ccc(F)cc3)ccc2C1=O` [Example 21, 2(S)-[6-(4-Fluoro-benzyloxy)-1-oxo-3,4-dihydro-1H-isoquinolin-2-yl]-propionamide], for which the values for the IC50 in assay [1] and in assay [2] were more than 10000 nM and 18 nM, respectively.

In turn, `NC(=O)CCN1CCc2cc(OCc3cccc(F)c3)ccc2C1=O` [Example 19, 3-[6 (3-Fluoro-benzyloxy)-1-oxo-3,4-dihydro-1H-isoquinolin-2-yl]-propionamide] had an IC50 in assay [2] of 392 nM.

As to `C[C@H](C(N)=O)N1CCc2cc(OCc3ccc(F)cc3)ccc2C1=O` [Example 20, 2-(R)-[6-(4-Fluoro-benzyloxy)-1-oxo-3,4-dihydro-1H-isoquinolin-2-yl]-propionamide], the IC50 in assay [1] was more than 10000 nM; in assay [2], 12 nM.

Consider `CC(C(N)=O)N1CCc2cc(OCc3cccc(F)c3)ccc2C1=O` (racemic) [Example 7, 2-[6-(3-Fluoro-benzyloxy)-1-oxo-3,4-dihydro-1H-isoquinolin-2-yl]-propionamide], for which the IC50 is more than 10000 nM in assay [1] (setting [3]) and 12 nM in assay [2].

As to `CC(C)(C(N)=O)N1CCc2cc(OCc3ccc(F)cc3)ccc2C1=O` [Example 30, 2-[6-(4-Fluoro-benzyloxy)-1-oxo-3,4-dihydro-1H-isoquinolin-2-yl]-isobutyramide], the midpoint of inhibition in assay [2], the IC50, lay at 1130 nM.

In assay [2], `N#CCN1CCc2cc(OCc3cccc(F)c3)ccc2C1=O` [Example 12, [6-(3-Fluoro-benzyloxy)-1-oxo-3,4-dihydro-1H-isoquinolin-2-yl]-acetonitrile] gave an IC50 of 154 nM.

`NC(=O)[C@H](CO)N1CCc2cc(OCc3ccc(F)cc3)ccc2C1=O` [Example 22, 2(S)-[6(4-Fluoro-benzyloxy)-1-oxo-3,4-dihydro-1H-isoquinolin-2-yl]-3-hydroxy-propionamide]: the IC50 was more than 10000 nM in assay [1] and 20 nM in assay [2].

`COCC(C)N1CCc2cc(OCc3cccc(F)c3)ccc2C1=O` (stereo not shown) [Example 14, 6-(3-Fluoro-benzyloxy)-2-(2-methoxy-1-methyl-ethyl)-3,4-dihydro-2H-isoquinolin-1-one]: the IC50 in assay [1] was found to be 4220 nM; in assay [2], 63 nM.

On to `CC(CO)N1CCc2cc(OCc3cccc(F)c3)ccc2C1=O` (stereo not shown) [Example 8, 6-(3-Fluoro-benzyloxy)-2-(2-hydroxy-1-methyl-ethyl)-3,4-dihydro-2H-isoquinolin-1-one], for which the IC50 in assay [1] (setting [3]) was more than 10000 nM; in assay [2], 74 nM.

Take `NC(=O)CN1CCc2cc(OCc3cccc(F)c3)ccc2C1=O` [Example 6, 2-[6-(3-Fluoro-benzyloxy)-1-oxo-3,4-dihydro-1H-isoquinolin-2-yl]-acetamide]: the IC50 in assay [1] (setting [3]) was determined as 330 nM; in assay [2], 8 nM.
